Measured values as given in the supplement of paper PMC6045584.
± gives the standard deviation of the averaged measurements.

How the values were obtained:
LAPATINIB = compound: CS(=O)(=O)CCNCc1ccc(-c2ccc3ncnc(Nc4ccc(OCc5cccc(F)c5)c(Cl)c4)c3c2)o1 [LAPATINIB]; assay: surviving fraction relative to DMSO-only wells; higher = less growth inhibition; details: exposure time: 5 days
In short: (§1)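 Inhibitors were tested at 0.5, 1, 5, 10, 50, 100, 500 and 1000 nM, applied continuously for five days beginning 24 hours after log-phase tumour cells were seeded at 250–500 per well in 384-well plates. CellTiter-Glo luminescence served as the viability measure, expressed as surviving fraction against the median of DMSO-only wells. Each line, screened three times, was kept only with replicate Pearson r >0.7 and median Z' >0.3.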

RESVERATROL = compound: Oc1ccc(/C=C/c2cc(O)cc(O)c2)cc1 [RESVERATROL]; assay: as above; details: exposure time: 5 days
In short: as §1

Test System	surviving fraction (LAPATINIB; 0.5 nM)	surviving fraction (LAPATINIB; 1 nM)	surviving fraction (LAPATINIB; 5 nM)	surviving fraction (LAPATINIB; 10 nM)	surviving fraction (LAPATINIB; 50 nM)	surviving fraction (LAPATINIB; 100 nM)	surviving fraction (LAPATINIB; 500 nM)	surviving fraction (LAPATINIB; 1000 nM)	surviving fraction (RESVERATROL; 0.5 nM)	surviving fraction (RESVERATROL; 1 nM)	surviving fraction (RESVERATROL; 5 nM)	surviving fraction (RESVERATROL; 10 nM)	surviving fraction (RESVERATROL; 50 nM)	surviving fraction (RESVERATROL; 100 nM)	surviving fraction (RESVERATROL; 500 nM)	surviving fraction (RESVERATROL; 1000 nM)
MDAMB436 BREAST	0.893 ± 0.14	0.996 ± 0.13	0.834 ± 0.091	0.896 ± 0.03	1.02 ± 0.072	1.03 ± 0.12	1.05 ± 0.23	1.04 ± 0.083	0.943 ± 0.049	1.01 ± 0.17	0.998 ± 0.2	1.01 ± 0.11	1.08 ± 0.21	0.993 ± 0.11	1.06 ± 0.15	1.07 ± 0.056
MDAMB453 BREAST	1.06 ± 0.024	1.04 ± 0.061	1.09 ± 0.099	1.11 ± 0.12	0.993 ± 0.026	1.04 ± 0.018	0.868 ± 0.043	0.752 ± 0.024	1.07 ± 0.059	1.06 ± 0.06	1.16 ± 0.022	1.11 ± 0.039	1.16 ± 0.05	1.12 ± 0.069	1.04 ± 0.058	1.09 ± 0.019
MDAMB468 BREAST	1.07 ± 0.019	1.01 ± 0.042	1.13 ± 0.054	1.09 ± 0.08	1.086 ± 0.01	1.1 ± 0.051	0.948 ± 0.043	0.785 ± 0.058	1.05 ± 0.11	1.13 ± 0.08	1.06 ± 0.059	1.07 ± 0.05	1.02 ± 0.047	1.14 ± 0.037	1.07 ± 0.053	1.09 ± 0.06
MFM223 BREAST	1.18 ± 0.13	1.18 ± 0.14	1.15 ± 0.027	1.13 ± 0.081	1.058 ± 0.01	1.2 ± 0.034	1.02 ± 0.084		1.06 ± 0.062	1.45 ± 0.56	1.15 ± 0.042	1.46 ± 0.46	1.08 ± 0.086	1.08 ± 0.18	1.19 ± 0.046	1.08 ± 0.11
MG63 BONE	0.98 ± 0.029	1.04 ± 0.027	1.06 ± 0.035	1.07 ± 0.035	1.04 ± 0.039	1.08 ± 0.023	1.09 ± 0.017	1.11 ± 0.038	1.01 ± 0.038	1.06 ± 0.048	1.07 ± 0.035	1.15 ± 0.021	1.04 ± 0.024	1.11 ± 0.029	1.03 ± 0.023	1.05 ± 0.031
MHM BONE	0.9907 ± 0.0093	1 ± 0.015	1.05 ± 0.014	1.07 ± 0.037	1.02 ± 0.027	1.02 ± 0.014	0.992 ± 0.033	1.01 ± 0.024	0.997 ± 0.013	1.02 ± 0.015	1.03 ± 0.012	1.03 ± 0.018	1.06 ± 0.032	1.06 ± 0.049	0.998 ± 0.025	1.045 ± 0.0076
NCIH441 LUNG	1.06 ± 0.071	1.07 ± 0.12	1.08 ± 0.059	1.17 ± 0.067	1.03 ± 0.053	1.09 ± 0.043	1 ± 0.061	1.18 ± 0.054	1.14 ± 0.074	1.08 ± 0.12	1.1 ± 0.099	1.18 ± 0.09	1.09 ± 0.029	1.15 ± 0.087	1.1 ± 0.025	1.17 ± 0.026
NOS1 BONE	1.16 ± 0.16	1.05 ± 0.12	1.11 ± 0.069	1.12 ± 0.033	1.13 ± 0.068	1.08 ± 0.13	1.03 ± 0.093	0.898 ± 0.029	1.08 ± 0.18	0.975 ± 0.046	1.07 ± 0.028	1.137 ± 0.0086	1.21 ± 0.22	1.35 ± 0.13	1.16 ± 0.032	1.17 ± 0.053
NY BONE	1.02 ± 0.025	1.03 ± 0.042	1.05 ± 0.025	1.1 ± 0.05	1 ± 0.028	1.1 ± 0.046	0.9837 ± 0.0064	1.04 ± 0.027	0.936 ± 0.024	0.976 ± 0.03	1.06 ± 0.022	1.06 ± 0.048	1.01 ± 0.035	1.05 ± 0.047	0.951 ± 0.0076	1.01 ± 0.054
OS25HAL BONE	1.01 ± 0.018	1.06 ± 0.018	1.06 ± 0.066	1 ± 0.024	1.05 ± 0.029	1.04 ± 0.0055	1.09 ± 0.044	1.1 ± 0.053	1.01 ± 0.026	1.11 ± 0.059	1.03 ± 0.032	0.996 ± 0.024	1.001 ± 0.0068	1.08 ± 0.04	1.03 ± 0.018	1.16 ± 0.027
OSHN BONE	1.03 ± 0.026	1.098 ± 0.0061	1.09 ± 0.025	1.1 ± 0.011	1.05 ± 0.02	1.08 ± 0.015	1.067 ± 0.0071	1.1 ± 0.015	1.02 ± 0.022	1.106 ± 0.0076	1.07 ± 0.017	1.099 ± 0.004	1.06 ± 0.026	1.13 ± 0.03	1.09 ± 0.02	1.11 ± 0.024
PCI30 HEADNECK	1.06 ± 0.033	1.05 ± 0.06	1.05 ± 0.052	1.06 ± 0.084	1.14 ± 0.063	1.18 ± 0.062	1.01 ± 0.069	0.989 ± 0.071	1 ± 0.031	1.02 ± 0.058	1.04 ± 0.03	1.1 ± 0.08	1.05 ± 0.031	1.13 ± 0.045	1.07 ± 0.082	1.16 ± 0.015
RDES SOFT TISSUE		1.21 ± 0.12	1.14 ± 0.11	1.13 ± 0.13	1.09 ± 0.053	1.19 ± 0.11	1.41 ± 0.18	1.55 ± 0.19	1.25 ± 0.14	1.25 ± 0.05	1.29 ± 0.042	1.32 ± 0.054	1.37 ± 0.13	1.35 ± 0.24	1.68 ± 0.053	1.67 ± 0.12
S68 BREAST	1.12 ± 0.24	1.01 ± 0.2	1.17 ± 0.11	1.26 ± 0.22	1.07 ± 0.08	1.1 ± 0.33	0.71 ± 0.058	0.769 ± 0.032	0.829 ± 0.095	0.815 ± 0.21	0.993 ± 0.36	0.818 ± 0.095	1.14 ± 0.17	1 ± 0.059	1.1 ± 0.12	0.878 ± 0.066
SAOS2 BONE	1.14 ± 0.027	1.19 ± 0.066	1.24 ± 0.038	1.24 ± 0.049	1.18 ± 0.065	1.24 ± 0.099	1.21 ± 0.11	1.15 ± 0.22	1.16 ± 0.15	1.24 ± 0.047	1.24 ± 0.091	1.23 ± 0.061	1.26 ± 0.11	1.22 ± 0.089	1.24 ± 0.084	1.18 ± 0.072
SCC003 HEADNECK	1.08 ± 0.05	1.13 ± 0.054	1.06 ± 0.067	1.11 ± 0.079	0.963 ± 0.011	0.964 ± 0.054	0.757 ± 0.015	0.64 ± 0.069	1.05 ± 0.056	1.06 ± 0.15	1.14 ± 0.012	1.12 ± 0.058	1.06 ± 0.084	1.1 ± 0.064	1.09 ± 0.017	1.15 ± 0.075
SCC36 HEADNECK	1.03 ± 0.067	1.1 ± 0.089	1.08 ± 0.062	1.11 ± 0.051	0.918 ± 0.049	0.883 ± 0.067	0.543 ± 0.051	0.394 ± 0.043	1.13 ± 0.082	1.14 ± 0.11	1.22 ± 0.044	1.19 ± 0.045	1.25 ± 0.07	1.25 ± 0.03	1.05 ± 0.099	1.16 ± 0.16
SCC47 HEADNECK	1.09 ± 0.1	1.1 ± 0.016	1.09 ± 0.011	1.18 ± 0.033	1.05 ± 0.044	1.05 ± 0.072	0.82 ± 0.041	0.705 ± 0.053	1.09 ± 0.13	1.11 ± 0.096	1.09 ± 0.066	1.21 ± 0.038	1.21 ± 0.072	1.17 ± 0.051	1.09 ± 0.023	1.2 ± 0.057
SCC90 HEADNECK	1.02 ± 0.038	1.01 ± 0.1	1.01 ± 0.087	0.971 ± 0.04	0.845 ± 0.037	0.802 ± 0.067	0.532 ± 0.015	0.508 ± 0.023	1.01 ± 0.012	1.045 ± 0.0079	1.12 ± 0.15	1.08 ± 0.021	1.03 ± 0.061	1.05 ± 0.064	1.05 ± 0.019	0.956 ± 0.076
